Eight compounds from ChEMBL document CHEMBL2321698, “Novel Amino-Nicotinamide Derivatives as Modulators of KCNQ2/3 Potassium Channels” (2013) can be followed below.

Experiment [1] concerns the target T1, Voltage-gated potassium channel, KQT; KCNQ2(Kv7.2)/KCNQ3(Kv7.3) (Homo sapiens) (UniProt O43526+O43525). Put plainly: Modulation of human KCNQ2/3 channel expressed in CHO-K1 cells by fluorescence assay relative to retigabine. It is filed as cell-based. The arrangement: concentration or dose not given beside the values.
For experiment [2], the target named is T1, Voltage-gated potassium channel, KQT; KCNQ2(Kv7.2)/KCNQ3(Kv7.3) (Homo sapiens). Put plainly: Modulation of human KCNQ2/3 channel expressed in CHO-K1 cells by fluorescence assay. It is filed as cell-based.
For experiment [3], the system named is Rattus norvegicus. Put plainly: Antinociceptive activity in po dosed Sprague-Dawley rat by low intensity tail flick test. It is filed as functional.

In the case of `CCSc1nc(N2CCOCC2)cc(C)c1C(=O)NCc1ccc(F)cc1`, the Activity in experiment [1] stood at 158%; in experiment [2], 124 nM. This compound also returned an ED50 in experiment [3] of 94 mg/kg.

Consider `CCSc1nc(N2CCOCC2)cc(C)c1C(=O)NCCCC(C)C`, for which the Activity in experiment [1] was found to be 215%; in experiment [2], 206 nM. Further, it took a dose of 46 mg/kg to reach the 50% effect level in experiment [3] (ED50).

On to `CCCc1nc(N2CCOCC2)cc(C)c1C(=O)NCc1cccc(F)c1`, for which the Activity in experiment [1] amounted to 176%; in experiment [2] it was 181 nM. The same compound showed an ED50 in experiment [3] of 81 mg/kg.

On to `COc1nc(N2CCOCC2)cc(C)c1C(=O)NCc1cccc(F)c1`, for which the values for the Activity in experiment [1] and in experiment [2] were 155% and 736 nM, respectively. Further, in experiment [3], the 50% effect level (ED50) was put at a dose of 79 mg/kg.

On to `CCSc1nc(N2CCOCC2)cc(C)c1C(=O)NCc1cc(C)cc(F)c1`, for which the values for the Activity in experiment [1] and in experiment [2] were 160% and 56 nM, respectively. The compound further had an ED50 in experiment [3] of 78 mg/kg.

Consider `Cc1cc(N2CCOCC2)nc(C2CC2)c1C(=O)NC[C@@H]1CCCC[C@H]1O`, for which the Activity in experiment [1] turned out to be 245%; in experiment [2] it was 483 nM. Besides, in experiment [3], the ED50 was found to be 67 mg/kg.

As for `CCSc1nc(N2CCOCC2)cc(C)c1C(=O)NCCCC(C)(C)C`, the Activity in experiment [1] is 244%; in experiment [2], 42 nM. Further, the ED50 in experiment [3] was found to be 100 mg/kg.

Consider `CCSc1nc(N2CCOCC2)cc(C)c1C(=O)NCc1cccc(F)c1`, for which the Activity in experiment [1] came to 171%; in experiment [2], 134 nM. This compound also yielded a median effective dose (ED50) in experiment [3] of 4.3 mg/kg.
